From patent publication US20230364180A1, “COMPOSITION FOR IMPROVING MILD COGNITIVE IMPAIRMENT AND METHOD FOR IMPROVING MILD COGNITIVE IMPAIRMENT” (TOKAI BUSSAN CO., LTD., priority 2019, published 2023)

Key:
[1] = stated as known; cited from earlier work
[2] = Proteolytic action on target protein by hydroxyl radical (FIG. 2A); assay type: biochemical; details: prevention of degradation of target protein
Description: FIG. 2A is a hydroxyl radical, in which 1 is untreated target protein, 2 is no antioxidant added, 3 is IMDP added, 4 is vitamin C added, 5 is ferulic acid added, 6 is IMDP+vitamin C+ferulic acid added; and […]

[3] = stated as known; cited from earlier work; remark: listed apart in the source
[4] = Proteolytic action on target protein by peroxynitrite radical (FIG. 2B); assay type: biochemical; details: prevention of degradation of target protein

CC1=C(/C=C/C(C)=C/C=C/C(C)=C/C=C/C=C(C)/C=C/C=C(C)/C=C/C2=C(C)C(=O)[C@@H](O)CC2(C)C)C(C)(C)C[C@H](O)C1=O [astaxanthin]
antioxidant activity against hydroxyl radicals (known) [1]: strong

COc1cc(/C=C/C(=O)O)ccc1O [ferulic acid]
antioxidant activity against hydroxyl radicals [2]: strong

O=C1O[C@H]([C@@H](O)CO)C(O)=C1O [vitamin C]
antioxidant activity against peroxynitrite radicals (known) [3]: strong | antioxidant activity against peroxynitrite radicals [4]: strong

vitamin E
antioxidant activity against hydroxyl radicals (known) [1]: strong
